Measured values: PubChem BioAssay AID192 (DTP/NCI, 2004)
Several values for one entry are separate records, joined by “and”; a condition that tells them apart may be missing. Equal values may be shown once. Toxic doses and inconclusive results are not listed. How the source made its calls: active means survival T/C of 150% or more; inactive means T/C below 125% in these data.

System: BDF1 mice, B16 melanoma ip, median survival T/C
Assay: NCI In Vivo Anticancer Drug Screen. Data for tumor model B16 Melanoma (intraperitoneal) in B6D2F1 (BDF1) mice
Conditions: endpoint: median survival time, higher = longer survival
In short: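 Tumor-bearing mice received test compound or vehicle. Survival or tumor size was then measured in both groups. The treated-group figure was divided by the control-group figure.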

[1] = dose: 12.5 mg/kg/injection, schedule: Q01DX009 (ip), vehicle: saline with Tween-80
[2] = dose: 0.25 mg/kg/injection, schedule: Q01DX009 (ip), vehicle: Klucel (hydroxypropylcellulose) (HPC)
[3] = dose: 0.5 mg/kg/injection, schedule: Q01DX009 (ip), vehicle: Klucel (hydroxypropylcellulose) (HPC)
[4] = dose: 1.0 mg/kg/injection, schedule: Q01DX009 (ip), vehicle: Klucel (hydroxypropylcellulose) (HPC)
[5] = dose: 2.0 mg/kg/injection, schedule: Q01DX009 (ip), vehicle: Klucel (hydroxypropylcellulose) (HPC)
[6] = dose: 12.5 mg/kg/injection, schedule: Q01DX009 (ip), vehicle: saline
[7] = dose: 25.0 mg/kg/injection, schedule: Q01DX009 (ip), vehicle: saline
[8] = dose: 5.0 mg/kg/injection, schedule: Q01DX009 (ip), vehicle: saline
[9] = dose: 10.0 mg/kg/injection, schedule: Q01DX009 (ip), vehicle: saline
[10] = dose: 3.12 mg/kg/injection, schedule: Q01DX009 (ip), vehicle: Klucel (hydroxypropylcellulose) (HPC)
[11] = dose: 6.25 mg/kg/injection, schedule: Q01DX009 (ip), vehicle: Klucel (hydroxypropylcellulose) (HPC)
[12] = dose: 12.5 mg/kg/injection, schedule: Q01DX009 (ip), vehicle: Klucel (hydroxypropylcellulose) (HPC)
[13] = dose: 25.0 mg/kg/injection, schedule: Q01DX009 (ip), vehicle: Klucel (hydroxypropylcellulose) (HPC)

Measured: T/C

CC(=O)OCC1OC([Se][As](C)C)C(OC(C)=O)C(OC(C)=O)C1OC(C)=O (centres undefined)
inactive: dose: 3.13 mg/kg/injection, schedule: Q01DX009 (ip), vehicle: saline with Tween-80 88 % of control | dose: 6.25 mg/kg/injection, schedule: Q01DX009 (ip), vehicle: saline with Tween-80 100 % of control | [1] 90 % of control

c1ccc2c(c1)C1=NCCN1c1ccccc1-2
inactive: dose: 12.0 mg/kg/injection, schedule: Q01DX009 (ip), vehicle: saline with Tween-80 92 % of control | dose: 18.0 mg/kg/injection, schedule: Q01DX009 (ip), vehicle: saline with Tween-80 94 % of control | dose: 26.0 mg/kg/injection, schedule: Q01DX009 (ip), vehicle: saline with Tween-80 102 % of control

Cn1c(=O)c2[nH]c(Cc3ccc4c(c3)OCO4)nc2n(C)c1=O
inactive: [2] 96 % of control | [3] 94 % of control | [4] 96 % of control | [5] 93 % of control

CN(C)c1nc(N(C)C)nc(N(C)C)n1
inactive: dose: 10.0 mg/kg/injection, schedule: Q01DX009 (ip), vehicle: Klucel (hydroxypropylcellulose) (HPC) 108 % of control | [1] 99 % of control and 106 % of control and 107 % of control | dose: 20.0 mg/kg/injection, schedule: Q01DX009 (ip), vehicle: Klucel (hydroxypropylcellulose) (HPC) 94 % of control | dose: 20.0 mg/kg/injection, schedule: Q01DX009 (ip), vehicle: saline with Tween-80 88 % of control and 99 % of control | dose: 20.0 mg/kg/injection, schedule: Q02DX009 (ip), vehicle: saline with Tween-80 103 % of control and 107 % of control | dose: 25.0 mg/kg/injection, schedule: Q02DX009 (ip), vehicle: Klucel (hydroxypropylcellulose) (HPC) 97 % of control | dose: 40.0 mg/kg/injection, schedule: Q01DX009 (ip), vehicle: Klucel (hydroxypropylcellulose) (HPC) 100 % of control | dose: 40.0 mg/kg/injection, schedule: Q01DX009 (ip), vehicle: saline with Tween-80 93 % of control and 97 % of control | dose: 40.0 mg/kg/injection, schedule: Q02DX009 (ip), vehicle: saline with Tween-80 103 % of control and 112 % of control | dose: 50.0 mg/kg/injection, schedule: Q02DX009 (ip), vehicle: Klucel (hydroxypropylcellulose) (HPC) 96 % of control | dose: 80.0 mg/kg/injection, schedule: Q01DX009 (ip), vehicle: Klucel (hydroxypropylcellulose) (HPC) 100 % of control | dose: 80.0 mg/kg/injection, schedule: Q01DX009 (ip), vehicle: saline with Tween-80 100 % of control and 102 % of control | dose: 80.0 mg/kg/injection, schedule: Q02DX009 (ip), vehicle: saline with Tween-80 104 % of control and 109 % of control | dose: 100.0 mg/kg/injection, schedule: Q02DX009 (ip), vehicle: Klucel (hydroxypropylcellulose) (HPC) 101 % of control | dose: 160.0 mg/kg/injection, schedule: Q01DX009 (ip), vehicle: Klucel (hydroxypropylcellulose) (HPC) 91 % of control | dose: 160.0 mg/kg/injection, schedule: Q01DX009 (ip), vehicle: saline with Tween-80 111 % of control | dose: 160.0 mg/kg/injection, schedule: Q02DX009 (ip), vehicle: saline with Tween-80 107 % of control and 115 % of control | dose: 200.0 mg/kg/injection, schedule: Q02DX009 (ip), vehicle: Klucel (hydroxypropylcellulose) (HPC) 124 % of control

OCCOCCOCCN1CCN(C(c2ccccc2)c2ccc(Cl)cc2)CC1 (centres undefined)
inactive: [6] 108 % of control | [7] 110 % of control | dose: 50.0 mg/kg/injection, schedule: Q01DX009 (ip), vehicle: saline 86 % of control | dose: 100.0 mg/kg/injection, schedule: Q01DX009 (ip), vehicle: saline 86 % of control

CC[n+]1ccc(Nc2ccc(/C=C/c3ccc4cc(Nc5cc[n+](CC)cc5)ccc4[n+]3CC)cc2)cc1
inactive: dose: 2.5 mg/kg/injection, schedule: Q01DX009 (ip), vehicle: saline 117 % of control | [8] 109 % of control | [9] 86 % of control

CC(C)[S][Pb]([c]1ccccc1)([c]1ccccc1)[c]1ccccc1
inactive: dose: 0.3 mg/kg/injection, schedule: Q01DX009 (ip), vehicle: gum acacia 97 % of control | dose: 0.6 mg/kg/injection, schedule: Q01DX009 (ip), vehicle: gum acacia 91 % of control | dose: 1.25 mg/kg/injection, schedule: Q01DX009 (ip), vehicle: gum acacia 89 % of control

Cc1cc2c(C(C)C)c(O)c(O)c(C=O)c2c(O)c1-c1c(C)cc2c(C(C)C)c(O)c(O)c(C=O)c2c1O
inactive: [2] 93 % of control | [3] 91 % of control | [4] 96 % of control | [5] 104 % of control | dose: 4.0 mg/kg/injection, schedule: Q01DX009 (ip), vehicle: Klucel (hydroxypropylcellulose) (HPC) 91 % of control | dose: 8.0 mg/kg/injection, schedule: Q01DX009 (ip), vehicle: Klucel (hydroxypropylcellulose) (HPC) 91 % of control

COC1=C(C)C2CC(=O)OC3CC4C(C)CC(O)C(=O)C4(C)C(C1=O)C32C (centres undefined)
inactive: dose: 0.5 mg/kg/injection, schedule: Q01DX009 (ip), vehicle: saline + alcohol 110 % of control | dose: 1.0 mg/kg/injection, schedule: Q01DX009 (ip), vehicle: saline + alcohol 107 % of control | dose: 2.0 mg/kg/injection, schedule: Q01DX009 (ip), vehicle: saline + alcohol 99 % of control | dose: 4.0 mg/kg/injection, schedule: Q01DX009 (ip), vehicle: saline + alcohol 87 % of control | dose: 8.0 mg/kg/injection, schedule: Q01DX009 (ip), vehicle: saline + alcohol 99 % of control

[Br][Pt].[NH-]CC[N-]CC[NH-]
inactive: dose: 3.13 mg/kg/injection, schedule: Q01DX009 (ip), vehicle: saline 108 % of control | dose: 6.25 mg/kg/injection, schedule: Q01DX009 (ip), vehicle: saline 90 % of control | [6] 91 % of control | [7] 91 % of control

NC(N)=NCCc1ccccc1
inactive: [8] 119 % of control | [9] 111 % of control | dose: 20.0 mg/kg/injection, schedule: Q01DX009 (ip), vehicle: saline 114 % of control

CCc1ccccc1NC(=O)Nc1ccccc1
inactive: dose: 100.0 mg/kg/injection, schedule: Q01DX009 (ip), vehicle: Klucel (hydroxypropylcellulose) (HPC) 90 % of control | dose: 100.0 mg/kg/injection, schedule: Q04DX003 (ip), vehicle: Klucel (hydroxypropylcellulose) (HPC) 100 % of control | dose: 200.0 mg/kg/injection, schedule: Q01DX009 (ip), vehicle: Klucel (hydroxypropylcellulose) (HPC) 90 % of control | dose: 200.0 mg/kg/injection, schedule: Q04DX003 (ip), vehicle: Klucel (hydroxypropylcellulose) (HPC) 100 % of control | dose: 400.0 mg/kg/injection, schedule: Q04DX003 (ip), vehicle: Klucel (hydroxypropylcellulose) (HPC) 92 % of control

CCCCCCCCCCCCCCCCCCNC(=O)Oc1ccc(Cl)c(C)c1
inactive: dose: 100.0 mg/kg/injection, schedule: Q04DX003 (ip), vehicle: gum acacia 88 % of control | dose: 200.0 mg/kg/injection, schedule: Q04DX003 (ip), vehicle: gum acacia 90 % of control

CCC(CC)CC1CN2CCc3cc(OC)c(OC)cc3C2CC1(O)CC (centres undefined)
inactive: [10] 102 % of control | [11] 102 % of control | [12] 102 % of control | [13] 106 % of control

COC1=C(Br)[C@H](O)[C@](O)(CC#N)C=C1Br
inactive: dose: 17.5 mg/kg/injection, schedule: Q01DX009 (ip), vehicle: Klucel (hydroxypropylcellulose) (HPC) 105 % of control | [13] 87 % of control | dose: 35.0 mg/kg/injection, schedule: Q01DX009 (ip), vehicle: Klucel (hydroxypropylcellulose) (HPC) 99 % of control | dose: 70.0 mg/kg/injection, schedule: Q01DX009 (ip), vehicle: Klucel (hydroxypropylcellulose) (HPC) 107 % of control

O=C1NC(c2ccccc2)(c2ccccc2)C(=O)N1SC(Cl)(Cl)Cl
inactive: [10] 106 % of control | [11] 92 % of control | [12] 103 % of control | [13] 97 % of control | dose: 50.0 mg/kg/injection, schedule: Q01DX009 (ip), vehicle: Klucel (hydroxypropylcellulose) (HPC) 91 % of control

N#Cc1ccc(Br)cc1[N+](=O)[O-]
inactive: dose: 0.39 mg/kg/injection, schedule: Q01DX009 (ip), vehicle: Klucel (hydroxypropylcellulose) (HPC) 93 % of control | dose: 0.78 mg/kg/injection, schedule: Q01DX009 (ip), vehicle: Klucel (hydroxypropylcellulose) (HPC) 93 % of control | dose: 1.56 mg/kg/injection, schedule: Q01DX009 (ip), vehicle: Klucel (hydroxypropylcellulose) (HPC) 106 % of control
